This is an account of results in US9877962B2, “Piperazinyl derivatives for the treatment of cancer” (priority 2011, dated 2018).

What all share (type): cell-based, human
In one experiment the test system is MCF-7. The experiment can be described thus: Cytotoxicity test (ViaLight Plus cell proliferation) on MCF-7. The note with it: 72 hours' incubation, cell viability vs 0.5% DMSO control; for IC50: Homo sapiens, MCF7, 72 h, read-out: EC50 MCF-7. The source says:
(§1) The effects of the compounds of the invention on the proliferation of cancer cells were studied on different human cancer cell lines of different tissue origin (MCF-7: breast cancer, MCF-7/adr adriamycin-resistant breast cancer, HL-60: acute promyelocytic leukaemia, HL-60/R10: doxorubicin-resistant acute promyelocytic leukaemia, HT29: colon adenocarcinoma, Mia Paca2: pancreatic tumour, Panc-1: pancreatic exocrine tumour, SK-OV-3: cisplatin- and adriamycin resistant ovarian cancer). The cancer cells used for this study were incubated at 37° C. in the presence of one of the compounds of the invention added to the culture medium at different concentrations.
(§2) The cancer cell lines were obtained from ATCC (American Type Culture Collection) for MCF-7, from Hôpital de la Pitié Salpetrière for MCF-7/adr and from Oncodesign (Dijon, France) for HL-60, HL-60/R10, HT29, MiaPaCa2, Panc-1 and SK-OV-3. They were cultured in RPMI 1640 medium containing 2 mM L-Glutamine supplemented with 10% foetal calf serum (Lonza; Verviers, Belgium). All the cell lines were held in culture at 37° C. in a humid atmosphere containing 5% CO2. Cell proliferation was assessed using the ViaLight® Plus Assay Kit (Lonza; Verviers, Belgium) following the manufacturer's instructions. The cells were seeded in 96-well culture plates compatible with luminescence read-off (white plates with transparent bottom) in a proportion of 5 000 to 10 000 cells per well in 100 μl of culture medium. After a pre-incubation time of 24 hours at 37° C., the compounds of the invention dissolved in dimethylsulfoxide (DMSO) were individually added to each well in a proportion of 0.5 μl per well. After 72 hours' incubation at 37° C. in a humid atmosphere containing 5% CO2, 50 μl of lysis buffer were added to each well and 15 minutes later 100 μl of ATP measuring agent were added. The plates were read under a luminometer to evaluate cell viability. The data obtained was processed by computer to obtain the EC50 value i.e. the concentration value of each of the compounds which induces 50% cell viability compared with a control value (0.5% DMSO alone).

In another experiment the test system is HL-60/R10. The experiment can be described thus: Cytotoxicity test (ViaLight Plus cell proliferation) on HL-60/R10. The note with it: doxorubicin-resistant line, 72 hours' incubation, cell viability vs 0.5% DMSO control, read-out: EC50 HL60/R10; for IC50: HL-60, 72 h.
Description: as §1, §2

The test system of another experiment is MCF-7/adr. The experiment can be described thus: Cytotoxicity test (ViaLight Plus cell proliferation) on MCF-7/adr. Particulars: adriamycin-resistant line, 72 hours' incubation, cell viability vs 0.5% DMSO control; for IC50: Homo sapiens, NCI/ADR-RES, 72 h, read-out: EC50 MCF-7/adr.
Description: as §1, §2

The test system of a further experiment is HL-60. The experiment is described as follows: Cytotoxicity test (ViaLight Plus cell proliferation) on HL-60. Particulars: 72 hours' incubation, cell viability vs 0.5% DMSO control; for IC50: HL-60, 72 h, read-out: EC50 HL-60.
Description: as §1, §2

Where two headings read alike, the source gives them in different places.

On to `CC(C)[C@H]1CN(C(=O)C(c2ccc(F)cc2)N(C(=O)CCl)c2ccc(Oc3ccccc3)cc2)CCN1` (single isomer, unassigned) [I-3 dia1], for which the EC50 with MCF-7 was found to be 927 nM; with HL-60/R10, 15 nM; with MCF-7/adr it was 55 nM; in the experiment with HL-60, 1310 nM.

`CC(C)[C@@H]1CN(C(=O)C(c2ccc(F)cc2)N(C(=O)CCl)c2ccc(Oc3ccccc3)cc2)CCN1` (single isomer, unassigned) [I-4 dia1]: the EC50 was determined as 315 nM with MCF-7, 4 nM in the experiment on HL-60/R10, 13 nM with MCF-7/adr and 648 nM in the experiment with HL-60.

As for `CC(C)[C@@H]1CN(C(=O)C(c2ccc(F)cc2)N(C(=O)CCl)c2ccc(Oc3ccccc3)cc2)CCN1` (single isomer, unassigned) [I-4 dia2], the EC50 in the experiment on MCF-7 turned out to be 863 nM; with HL-60/R10, 62 nM; in the experiment on MCF-7/adr, 166 nM; in the experiment with HL-60 it was 1320 nM.

With `Cc1cc(Oc2ccccc2)ccc1N(C(=O)CCl)C(C(=O)N1CCN[C@@H](C(C)C)C1)c1ccc(F)cc1` (single isomer, unassigned) [I-7 dia1], the IC50 with MCF-7 and in the experiment on HL-60 (Homo sapiens) was 2500 nM each time. The EC50 in the experiment with HL-60/R10 stood at 604 nM; in the experiment with MCF-7/adr, 618 nM.

In the case of `Cc1cc(Oc2ccccc2)ccc1N(C(=O)CCl)C(C(=O)N1CCN[C@H](C(C)C)C1)c1ccc(F)cc1` (single isomer, unassigned) [I-8 dia1], the results for the IC50 with MCF-7 and in the experiment with HL-60 (Homo sapiens) were 1740 nM and 2030 nM, respectively. The EC50 in the experiment with HL-60/R10 is 54 nM; in the experiment with MCF-7/adr, 148 nM.

Regarding `Cc1cc(Oc2ccccc2)ccc1N(C(=O)CCl)C(C(=O)N1CCN[C@H](C(C)C)C1)c1ccc(F)cc1` (single isomer, unassigned) [I-8 dia2], the EC50 in the experiment with MCF-7 was determined as 2410 nM; in the experiment on HL-60/R10, 312 nM; in the experiment on MCF-7/adr, 477 nM; in the experiment on HL-60, 1740 nM.

Turning to `CC[C@@H]1CN(C(=O)C(c2ccc(F)cc2)N(C(=O)CCl)c2ccc(Oc3ccccc3)cc2)CCN1C(=O)OC(C)(C)C` (single isomer, unassigned; dia1) [I-20 dia1], the EC50 in the experiment on MCF-7 stood at 1570 nM; with HL-60/R10 it was 80 nM; with MCF-7/adr it was 73 nM; in the experiment with HL-60 it was 196 nM.

Take `C[C@H]1CN(C(=O)C(c2ccc(F)cc2)N(C(=O)CCl)c2ccc(Oc3ccccc3)cc2)CCN1` (single isomer, unassigned; dia1) [I-21 dia1]: the EC50 came to 1950 nM with MCF-7, 13 nM with HL-60/R10, 93 nM with MCF-7/adr and 2450 nM with HL-60.

In the case of `C[C@@H]1CN(C(=O)C(c2ccc(F)cc2)N(C(=O)CCl)c2ccc(Oc3ccccc3)cc2)CCN1` (single isomer, unassigned; dia1) [I-22 dia1], the EC50 turned out to be 569 nM in the experiment with MCF-7, 17 nM in the experiment with HL-60/R10, 131 nM with MCF-7/adr and 2000 nM in the experiment with HL-60.

As for `Cc1cc(OC(C)C)ccc1N(C(=O)CCl)C(C(=O)N1CCN[C@@H](C(C)C)C1)c1ccc(F)cc1` (single isomer, unassigned; dia1) [I-26 dia1], the EC50 in the experiment with MCF-7 was determined as 1950 nM; in the experiment on HL-60/R10, 13 nM; with MCF-7/adr, 93 nM; with HL-60 it was 2450 nM.

Take `Cc1cc(OC(F)(F)F)ccc1N(C(=O)CCl)C(C(=O)N1CCN[C@@H](C(C)C)C1)c1ccc(F)cc1` (single isomer, unassigned; dia1) [I-27 dia1]: the EC50 in the experiment with MCF-7 turned out to be 569 nM; in the experiment on HL-60/R10 it was 17 nM; with MCF-7/adr, 131 nM; in the experiment on HL-60, 2000 nM.

For `Cc1cc(Oc2ccccc2)ccc1N(C(=O)CCl)C(C(=O)N1CCN(C(=O)OC(C)(C)C)C(C(=O)NCc2ccccc2)C1)c1cccs1` (single isomer, unassigned; dia1) [I-53 dia1], the EC50 in the experiment on MCF-7 worked out at 2060 nM; in the experiment on HL-60/R10, 645 nM; in the experiment with MCF-7/adr, 462 nM; in the experiment with HL-60, 1980 nM.

With `CC[C@H]1CN(C(=O)C(c2ccc(F)cc2)N(C(=O)CCl)c2ccc(Oc3ccccc3)cc2C)CCN1` (single isomer, unassigned; dia2) [I-17 dia2], the EC50 in the experiment on MCF-7 came to 1990 nM; with HL-60/R10 it was 49 nM; with MCF-7/adr, 152 nM; with HL-60, 1600 nM.

On to `CC[C@@H]1CN(C(=O)C(c2ccc(F)cc2)N(C(=O)CCl)c2ccc(Oc3ccccc3)cc2C)CCN1` (single isomer, unassigned; dia2) [I-18 dia2], for which the EC50 in the experiment with MCF-7 is 591 nM; in the experiment on HL-60/R10, 44 nM; in the experiment with MCF-7/adr it was 152 nM; in the experiment on HL-60, 352 nM.

For `C[C@H]1CN(C(=O)C(c2ccc(F)cc2)N(C(=O)CCl)c2ccc(Oc3ccccc3)cc2)CCN1` (single isomer, unassigned; dia2) [I-21 dia2], the EC50 with MCF-7 came out at 869 nM; in the experiment with HL-60/R10, 8 nM; with MCF-7/adr it was 10 nM; in the experiment on HL-60, 630 nM.

As to `C[C@@H]1CN(C(=O)C(c2ccc(F)cc2)N(C(=O)CCl)c2ccc(Oc3ccccc3)cc2)CCN1` (single isomer, unassigned; dia2) [I-22 dia2], the EC50 with MCF-7 stood at 430 nM; with HL-60/R10 it was 18 nM; in the experiment on MCF-7/adr, 34 nM; in the experiment on HL-60, 1150 nM.

With `Cc1cc(OC(C)C)ccc1N(C(=O)CCl)C(C(=O)N1CCN[C@@H](C(C)C)C1)c1ccc(F)cc1` (single isomer, unassigned; dia2) [I-26 dia2], the EC50 was found to be 869 nM with MCF-7, 8 nM with HL-60/R10, 10 nM in the experiment with MCF-7/adr and 630 nM in the experiment on HL-60.

For `Cc1cc(OC(F)(F)F)ccc1N(C(=O)CCl)C(C(=O)N1CCN[C@@H](C(C)C)C1)c1ccc(F)cc1` (single isomer, unassigned; dia2) [I-27 dia2], the EC50 is 430 nM in the experiment on MCF-7, 18 nM in the experiment on HL-60/R10, 34 nM in the experiment on MCF-7/adr and 1150 nM with HL-60.

With `Cc1cc(Oc2ccccc2)ccc1N(C(=O)CCl)C(C(=O)N1CCN(C(=O)OC(C)(C)C)[C@@H](C)C1)c1ccc(F)cc1` (stereo partly drawn) [Example I-9], the IC50 in the experiment on MCF-7 worked out at 2500 nM; with HL-60/R10 (Homo sapiens), 99 nM; in the experiment with MCF-7/adr it was 108 nM; in the experiment with HL-60 (Homo sapiens), 771 nM.

For the compound `Cc1cc(Oc2ccccc2)ccc1N(C(=O)CCl)C(C(=O)N1C[C@@H](C)N(C(=O)OC(C)(C)C)[C@@H](C)C1)c1ccc(F)cc1` (stereo partly drawn) [Example I-10], the IC50 in the experiment on MCF-7 amounted to 2500 nM; in the experiment with HL-60/R10 (Homo sapiens), 131 nM; in the experiment with MCF-7/adr, 151 nM; with HL-60 (Homo sapiens), 641 nM.

With `Cc1cc(Oc2ccccc2)ccc1N(C(=O)CCl)C(C(=O)N1CCN(C(=O)OC(C)(C)C)[C@H](C)C1)c1ccc(F)cc1` (stereo partly drawn) [Example I-11], the IC50 was 2500 nM in the experiment with MCF-7, 68 nM in the experiment on HL-60/R10 (Homo sapiens), 102 nM with MCF-7/adr and 939 nM in the experiment on HL-60 (Homo sapiens).

On to `Cc1cc(Oc2ccccc2)ccc1N(C(=O)CCl)C(C(=O)N1CCN[C@@H](C)C1)c1ccc(F)cc1` (stereo partly drawn) [Example I-12], for which the IC50 was determined as 1790 nM in the experiment with MCF-7, 82 nM in the experiment on HL-60/R10 (Homo sapiens), 421 nM in the experiment with MCF-7/adr and 2320 nM in the experiment on HL-60 (Homo sapiens). Moreover, the EC50 in the experiment with HL-60/R10 (Homo sapiens, HL-60) was 82 nM; in the experiment with HL-60 (Homo sapiens, HL-60), 2320 nM.

`Cc1cc(Oc2ccccc2)ccc1N(C(=O)CCl)C(C(=O)N1CCN[C@H](C)C1)c1ccc(F)cc1` (stereo partly drawn) [Example I-13]: the IC50 with MCF-7 was 2500 nM; with HL-60/R10 (Homo sapiens), 88 nM; in the experiment on MCF-7/adr it was 532 nM; in the experiment on HL-60 (Homo sapiens), 1990 nM. Further, the EC50 was determined as 88 nM in the experiment with HL-60/R10 (Homo sapiens, HL-60) and 1990 nM with HL-60 (Homo sapiens, HL-60).

As for `Cc1cc(Oc2ccccc2)ccc1N(C(=O)CCl)C(C(=O)N1C[C@@H](C)N[C@@H](C)C1)c1ccc(F)cc1` (stereo partly drawn) [Example I-14], the IC50 was determined as 2500 nM in the experiment with MCF-7, 95 nM in the experiment on HL-60/R10 (Homo sapiens), 232 nM in the experiment with MCF-7/adr and 1850 nM with HL-60 (Homo sapiens). For the same compound, the EC50 is 95 nM with HL-60/R10 (Homo sapiens, HL-60) and 1850 nM with HL-60 (Homo sapiens, HL-60).
